These results are taken from publication PMC6891762, “Novel Isoxazolidine and γ-Lactam Analogues of Homonucleosides” (Molecules, 2019).

Common to all, as to assay type: cell-based
In test [1] the test system is HCT-116 (colorectal carcinoma) cells. Description: Cytostatic activity, HCT-116. The conditions noted are these: concentration causing 50% decrease in cell proliferation. The method, then: (§1) The 50% cytostatic inhibitory concentration (IC50) causing a 50% decrease in cell proliferation was determined for all isolated isoxazolidines 14 and γ-lactams 15 toward nine cancerous cell lines (Capan-1 (pancreatic adenocarcinoma), Hap1 (chronic myeloid leukemia), HCT-116 (colorectal carcinoma), NCI-H460 (lung carcinoma), DND-41 (acute lymphoblastic leukemia), HL-60 (acute myeloid leukemia), K-562 (chronic myeloid leukemia), MM.1S (multiple myeloma) and Z-138 (non-Hodgkin lymphoma)) and normal retina (non-cancerous) cells (hTERT RPE-1). Docetaxel, etoposide and stauroporine were used as the reference compounds.
(§2) All assays were performed in 96-well microtiter plates. To each well was added (5−7.5) × 10^4 tumor cells and a given amount of the test compound. The cells were allowed to proliferate at 37 °C in a humidified, CO2-controlled atmosphere. At the end of the incubation period, the cells were counted in a Coulter counter. The IC50 (50% inhibitory concentration) was defined as the concentration of the compound that inhibited cell proliferation by 50%.

Test [2] relates to hTERT RPE-1 normal retina (non-cancerous) cells. Kind of test: Cytostatic activity, normal retina cells. Conditions: concentration causing 50% decrease in cell proliferation. On the procedure: as §1, §2
The subject of test [3] is Capan-1 (pancreatic adenocarcinoma) cells. Kind of test: Cytostatic activity, Capan-1. On the procedure:
The 50% cytostatic inhibitory concentration (IC50) causing a 50% decrease in cell proliferation was determined for all isolated isoxazolidines 14 and γ-lactams 15 toward nine cancerous cell lines (Capan-1 (pancreatic adenocarcinoma), Hap1 (chronic myeloid leukemia), HCT-116 (colorectal carcinoma), NCI-H460 (lung carcinoma), DND-41 (acute lymphoblastic leukemia), HL-60 (acute myeloid leukemia), K-562 (chronic myeloid leukemia), MM.1S (multiple myeloma) and Z-138 (non-Hodgkin lymphoma)) and normal retina (non-cancerous) cells (hTERT RPE-1).
All assays were performed in 96-well microtiter plates. To each well was added (5−7.5) × 10^4 tumor cells and a given amount of the test compound. The cells were allowed to proliferate at 37 °C in a humidified, CO2-controlled atmosphere. At the end of the incubation period, the cells were counted in a Coulter counter.

The subject of test [4] is Hap1 (chronic myeloid leukemia) cells. Kind of test: Cytostatic activity, Hap1. The conditions noted are these: concentration causing 50% decrease in cell proliferation. The method, then: as §1, §2
In test [5] the test system is NCI-H460 (lung carcinoma) cells. Description: Cytostatic activity, NCI-H460. The conditions noted are these: concentration causing 50% decrease in cell proliferation. The method, then: as §1, §2
The mark [6] stands for this setting: Homo sapiens, CAPAN-1, concentration causing 50% decrease in cell proliferation.
[7] abbreviates: concentration causing 50% decrease in cell proliferation.

The term IC50 denotes the point on the concentration scale where inhibition reaches its midpoint. A low value points to greater potency. As to `COC(=O)[C@@H]1C[C@H](Cn2ccc(=O)[nH]c2=O)N(C)O1` (relative stereo) [cis-14a, Methyl cis-3-{[2,4-dioxo-3,4–dihydropyrimidin-1(2H)-yl]methyl}-2-methylisoxazolidine-5-carboxylate], the concentration for half-maximal inhibition (IC50) was greater than 100 µM in test [1] (Homo sapiens, HCT-116); greater than 100 µM in test [2] (hTERT-RPE1); 54.8 µM in test [3] (setting [6]); greater than 100 µM in test [4] (Homo sapiens, HAP1); greater than 100 µM in test [5] (Homo sapiens, NCI-H460).

With `COC(=O)[C@@H]1C[C@H](Cn2cc(C)c(=O)[nH]c2=O)N(C)O1` (relative stereo) [cis-14b, Methyl cis-2-methyl-3-{[5-methyl-2,4-dioxo-3,4–dihydropyrimidin-1(2H)-yl]methyl}isoxazolidine-5-carboxylate], the 50% inhibitory concentration (IC50) was greater than 100 µM in test [1] (Homo sapiens, HCT-116); greater than 100 µM in test [2] (hTERT-RPE1); 55.2 µM in test [3] (setting [6]); 63 µM in test [4] (Homo sapiens, HAP1); 60.3 µM in test [5] (Homo sapiens, NCI-H460).

`COC(=O)[C@@H]1C[C@H](Cn2cc(F)c(=O)[nH]c2=O)N(C)O1` (relative stereo) [cis-14c, Methyl cis-3-{[5-fluoro-2,4-dioxo-3,4–dihydropyrimidin-1(2H)-yl]metyl}-2-methylisoxazolidine-5-carboxylate]: the 50% inhibitory concentration (IC50) in test [1], in test [2], in test [3] (setting [7]), in test [4] and in test [5] was greater than 100 µM in each case.

On to `COC(=O)[C@@H]1C[C@H](Cn2cc(Br)c(=O)[nH]c2=O)N(C)O1` (relative stereo) [cis-14d, Methyl cis-3-{[5-bromo-2,4-dioxo-3,4–dihydropyrimidin-1(2H)-yl]metyl}-2-methylisoxazolidine-5-carboxylate], for which the concentration for half-maximal inhibition (IC50) in test [1] is 86.4 µM; in test [2], greater than 100 µM; in test [3] (setting [7]), 95 µM; in test [4] it was greater than 100 µM; in test [5], 62.3 µM.

Regarding `COC(=O)[C@@H]1C[C@H](Cn2cc(Cl)c(=O)[nH]c2=O)N(C)O1` (relative stereo) [cis-14e, Methyl cis-3-{[5-chloro-2,4-dioxo-3,4–dihydropyrimidin-1(2H)-yl]metyl}-2-methylisoxazolidine-5-carboxylate], the half-inhibitory concentration (IC50) in test [1] was 26.7 µM; in test [2] it was greater than 100 µM; in test [3] (setting [7]) it was 51.2 µM; in test [4], 44.2 µM; in test [5] it was 48.8 µM.

With `COC(=O)[C@@H]1C[C@H](Cn2cc(I)c(=O)[nH]c2=O)N(C)O1` (relative stereo) [cis-14f, Methyl cis-3-{[5-iodo-2,4-dioxo-3,4–dihydropyrimidin-1(2H)-yl]metyl}-2-methylisoxazolidine-5-carboxylate], the IC50 in test [1] was 57.9 µM; in test [3] (setting [7]), 42 µM; in test [4] it was 40.9 µM; in test [5], 44.6 µM.

As to `COC(=O)[C@@H]1C[C@H](Cn2cnc3c(=O)n(C)c(=O)n(C)c32)N(C)O1` (relative stereo) [cis-14h, Methyl cis-3-[(1,3-dimethyl-2,6-dioxo-1,2,3,6-tetrahydro-9H-purin-9-yl)methyl]-2-methylisoxazolidine-5-carboxylate], the IC50 in test [1] (Homo sapiens, HCT-116) was 49 µM; in test [2] (hTERT-RPE1) it was greater than 100 µM; in test [3] (setting [6]), 62.2 µM; in test [4] (Homo sapiens, HAP1), 45.1 µM; in test [5] (Homo sapiens, NCI-H460) it was 33.2 µM.

With `CN1C(=O)[C@H](O)C[C@@H]1Cn1cc(Cl)c(=O)[nH]c1=O` (relative stereo) [cis-15e, cis-5-Chloro-1-[(4-hydroxy-1-methyl-5-oxopyrrolidin-2-yl)methyl]pyrimidine-2,4(1H,3H)-dione], the IC50 in test [1] (Homo sapiens, HCT-116) was 58.5 µM; in test [2] (hTERT-RPE1), greater than 100 µM; in test [3] (setting [6]), 28 µM; in test [4] (Homo sapiens, HAP1), 51.5 µM; in test [5] (Homo sapiens, NCI-H460), 28.6 µM. In addition, the “IC50 (µM) HCT-116 Colorectal Carcinoma” value in test [1] is reported as “inhibited the proliferation”.

In the case of `CN1C(=O)[C@H](O)C[C@@H]1Cn1cnc2c(=O)n(C)c(=O)n(C)c21` (relative stereo) [cis-15h, cis-9-[(4-Hydroxy-1-methyl-5-oxopyrrolidin-2-yl)methyl]-1,3-dimethyl-3,9–dihydro-1H-purine-2,6-dione], the IC50 was 43.5 µM in test [1] (Homo sapiens, HCT-116); greater than 100 µM in test [2] (hTERT-RPE1); 18.2 µM in test [3] (setting [6]); 21.5 µM in test [3] (setting [7]); 50.2 µM in test [4] (Homo sapiens, HAP1); 42.5 µM in test [5] (Homo sapiens, NCI-H460).

In the case of `COC(=O)[C@H]1C[C@H](Cn2ccc(=O)[nH]c2=O)N(C)O1` (relative stereo) [trans-14a, Methyl trans-3-{[2,4-dioxo-3,4–dihydropyrimidin-1(2H)-yl]methyl}-2-methylisoxazolidine-5-carboxylate], the IC50 in test [1] (Homo sapiens, HCT-116) was greater than 100 µM; in test [2] (hTERT-RPE1), greater than 100 µM; in test [3] (setting [6]) it was 62.6 µM; in test [4] (Homo sapiens, HAP1), greater than 100 µM; in test [5] (Homo sapiens, NCI-H460), 90.3 µM.

Turning to `COC(=O)[C@H]1C[C@H](Cn2cc(C)c(=O)[nH]c2=O)N(C)O1` (relative stereo) [trans-14b, Methyl trans-2-methyl-3-{[5-methyl-2,4-dioxo-3,4–dihydropyrimidin-1(2H)-yl]methyl}isoxazolidine-5-carboxylate], the 50% inhibitory concentration (IC50) in test [1] (Homo sapiens, HCT-116) was greater than 100 µM; in test [2] (hTERT-RPE1), greater than 100 µM; in test [3] (setting [6]), 51.3 µM; in test [4] (Homo sapiens, HAP1), greater than 100 µM; in test [5] (Homo sapiens, NCI-H460) it was greater than 100 µM.

Turning to `COC(=O)[C@H]1C[C@H](Cn2cc(F)c(=O)[nH]c2=O)N(C)O1` (relative stereo) [trans-14c, Methyl trans-3-{[5-fluoro-2,4-dioxo-3,4–dihydropyrimidin-1(2H)-yl]metyl}-2-methylisoxazolidine-5-carboxylate], the IC50 in test [1] is greater than 100 µM; in test [2] it was greater than 100 µM; in test [3] (setting [7]), 49 µM; in test [4] it was greater than 100 µM; in test [5] it was greater than 100 µM.

In the case of `COC(=O)[C@H]1C[C@H](Cn2cc(Br)c(=O)[nH]c2=O)N(C)O1` (relative stereo) [trans-14d, Methyl trans-3-{[5-bromo-2,4-dioxo-3,4–dihydropyrimidin-1(2H)-yl]metyl}-2-methylisoxazolidine-5-carboxylate], the IC50 in test [1] was greater than 100 µM; in test [2], greater than 100 µM; in test [3] (setting [7]) it was 67.8 µM; in test [4] it was greater than 100 µM; in test [5], 76.1 µM.

Take `COC(=O)[C@H]1C[C@H](Cn2cc(Cl)c(=O)[nH]c2=O)N(C)O1` (relative stereo) [trans-14e, Methyl trans-3-{[5-chloro-2,4-dioxo-3,4–dihydropyrimidin-1(2H)-yl]metyl}-2-methylisoxazolidine-5-carboxylate]: the half-inhibitory concentration (IC50) is 43.5 µM in test [1]; greater than 100 µM in test [2]; 38.5 µM in test [3] (setting [7]); 42.7 µM in test [4]; 41.9 µM in test [5].

Consider `COC(=O)[C@H]1C[C@H](Cn2cc(I)c(=O)[nH]c2=O)N(C)O1` (relative stereo) [trans-14f, Methyl trans-3-{[5-iodo-2,4-dioxo-3,4–dihydropyrimidin-1(2H)-yl]metyl}-2-methylisoxazolidine-5-carboxylate], for which the IC50 in test [1] is 53.5 µM; in test [2], greater than 100 µM; in test [3] (setting [7]), 41.4 µM; in test [4], 47 µM; in test [5] it was 41.1 µM.

Consider `COC(=O)[C@H]1C[C@H](CN2CCC(=O)NC2=O)N(C)O1` (relative stereo) [trans-14g, Methyl trans-3-{[2,4-dioxotetrahydropyrimidin-1(2H)-yl]metyl}-2-methylisoxazolidine-5-carboxylate], for which the IC50 in test [1] is 61 µM; in test [2], greater than 100 µM; in test [3] (setting [7]), 38.3 µM; in test [4], 58.1 µM; in test [5] it was 48.6 µM.

With `COC(=O)[C@H]1C[C@H](Cn2cnc3c(=O)n(C)c(=O)n(C)c32)N(C)O1` (relative stereo) [trans-14h, Methyl trans-3-[(1,3-dimethyl-2,6-dioxo-1,2,3,6-tetrahydro-9H-purin-9-yl)methyl]-2-methylisoxazolidine-5-carboxylate], the 50% inhibitory concentration (IC50) in test [1] (Homo sapiens, HCT-116) is 60.9 µM; in test [2] (hTERT-RPE1) it was greater than 100 µM; in test [3] (setting [6]), 43.2 µM; in test [4] (Homo sapiens, HAP1) it was 53.6 µM; in test [5] (Homo sapiens, NCI-H460), 51.2 µM.

For `CN[C@@H]1C[C@H]2O[C@@](C)([C@@H]1OC)n1c3ccccc3c3c4c(c5c6ccccc6n2c5c31)C(=O)NC4` [Stauroporine, reference compound], the IC50 in test [1] is 0.09 µM; in test [2], 0.25 µM; in test [4] it was 3.55 µM; in test [5] it was 11.5 µM.
